Where two headings read alike, the source gives them in different places.
Tests used:
[1] = tested on: giant foxtail; test: Test A pre-/postemergence herbicide test; type: in vivo, Setaria faberi; conditions: for pest or weed control at 500 g/ha / pest or weed control at 2000 g/ha: Setaria faberi, 240 h
Procedure, shortened: (§1)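 Sandy loam soil given preemergence directed spray; plants at 2 to 10 cm, one- to two-leaf stage, sprayed to runoff postemergence, compounds in non-phytotoxic solvent with surfactant. Injury rated visually versus untreated controls after about ten greenhouse days, 0 (no effect) to 100 (complete control); dash means not tested.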

[2] = tested on: velvetleaf; test: Test A pre-/postemergence herbicide test; type: in vivo, Abutilon theophrasti; conditions: for pest or weed control at 500 g/ha / pest or weed control at 2000 g/ha: Abutilon theophrasti, 240 h
Procedure, shortened: as §1

[3] = tested on: rice; test: Test B pre-/postemergence herbicide test; type: in vivo, Oryza sativa; conditions: for plant injury at 125 g/ha / plant injury at 500 g/ha: Oryza sativa, pre-emergence, 336 h; for plant injury at 125 g/ha: read-out: Rice plant response rating (0 to 100 scale); for plant injury at 500 g/ha: read-out: Plant response rating, Rice
Procedure, shortened: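 Evaluation is visual, comparing treated with control plants on a scale where 0 means no effect and 100 means full control. Treatments were preemergence, or postemergence on seedlings 2–18 cm tall, and held 13–15 days in the greenhouse.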

[4] = tested on: cocklebur; test: Test C pre-/postemergence herbicide test; type: in vivo, Xanthium strumarium; conditions: for Plant response rating, Cocklebur / pest or weed control at 62 g/ha: preemergence; for pest or weed control at 62 g/ha / pest or weed control at 125 g/ha / pest or weed control at 250 g/ha: read-out: Plant response rating, Cocklebur
Procedure, shortened: (§2)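 Preemergence: seeds planted and treated with compound in non-phytotoxic solvent with surfactant; postemergence: plants at 2 to 18 cm (1- to 4-leaf stage) sprayed likewise. Kept in greenhouse 12 to 14 days, then visually rated against controls, 0 (no effect) to 100 (complete control).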

[5] = tested on: large crabgrass; test: Test C pre-/postemergence herbicide test; type: in vivo, Digitaria sanguinalis; conditions: for Plant response rating, Crabgrass, Large / pest or weed control at 62 g/ha: preemergence; for pest or weed control at 62 g/ha / pest or weed control at 125 g/ha / pest or weed control at 250 g/ha / pest or weed control at 500 g/ha: Digitaria sanguinalis, pre-emergence, 312 h, read-out: Plant response rating, Crabgrass, Large
Procedure, shortened: as §2

[6] = tested on: pigweed; test: Test C pre-/postemergence herbicide test; type: in vivo, Amaranthus retroflexus; conditions: for Plant response rating, Pigweed / pest or weed control at 62 g/ha: preemergence; for pest or weed control at 62 g/ha / pest or weed control at 125 g/ha / pest or weed control at 250 g/ha / pest or weed control at 500 g/ha: Amaranthus retroflexus, pre-emergence, read-out: Plant response rating, Pigweed
Procedure, shortened: as §2

[7] = tested on: common (oilseed) sunflower; test: Test C pre-/postemergence herbicide test; type: in vivo, Helianthus annuus; conditions: for Plant response rating, Sunflower / pest or weed control at 62 g/ha: preemergence; for pest or weed control at 62 g/ha / pest or weed control at 250 g/ha / pest or weed control at 500 g/ha: Helianthus annuus, pre-emergence, read-out: Plant response rating, Sunflower
Procedure, shortened: as §2

[8] = tested on: velvetleaf; test: Test C pre-/postemergence herbicide test; type: in vivo, Abutilon theophrasti; conditions: for Plant response rating, Velvetleaf / pest or weed control at 62 g/ha: preemergence; for pest or weed control at 62 g/ha / pest or weed control at 250 g/ha / pest or weed control at 500 g/ha: Abutilon theophrasti, pre-emergence, read-out: Plant response rating, Velvetleaf
Procedure, shortened: as §2

[9] = Postemergence, 500 g ai/ha, 0 to 100 scale, 0 no effect, 100 complete control
[10] = Postemergence, 2000 g ai/ha, 0 to 100 scale, 0 no effect, 100 complete control
[11] = Preemergence, 2000 g ai/ha, visual rating, 0 to 100 scale (0 no effect, 100 complete control)
[12] = preemergence, 500 g ai/ha, visual injury, 0 to 100 scale (0 no effect, 100 complete control)
[13] = 125 g ai/ha, scale 0 (no effect) to 100 (complete control), visual, 12 to 14 days
[14] = 500 g ai/ha, scale 0 to 100 (0 no effect, 100 complete control), visual, 12 to 14 days
[15] = 125 g ai/ha, 0 = no effect, 100 = complete control
[16] = 500 g ai/ha, visual rating, 0 = no effect, 100 = complete control
[17] = Xanthium strumarium, pre-emergence, 312 h, 62 g ai/ha, scale 0 to 100
[18] = Xanthium strumarium, pre-emergence, 312 h, 125 g ai/ha, scale 0 (no effect) to 100 (complete control), visual, 12 to 14 days
[19] = Xanthium strumarium, pre-emergence, 312 h, 250 g ai/ha, scale 0-100

CCN(CC)C(=O)c1cccc(NC(=O)c2cc(C(C)(C)C)nn2C)n1 [Compound 314]
Foxtail, Giant plant response rating [1, 9]: 30 | Plant response rating, Foxtail, Giant [1, 10]: 70 | Foxtail, Giant plant response rating [1, 11]: 90 | Foxtail, Giant plant response rating [1, 12]: 60 | Velvetleaf plant response rating [2, 9]: 20 | Plant response rating, Velvetleaf [2, 10]: 30 | Velvetleaf plant response rating [2, 11]: 80 | Velvetleaf plant response rating [2, 12]: 40 | Plant response rating (0 to 100 scale), Rice ([3]; 125 g ai/ha, 0 is no effect, 100 is complete control, preemergence): 0 | Plant response rating, Rice ([3]; 500 g ai/ha, visual rating, 0 = no effect, 100 = complete control, preemergence): 10 | Plant response rating, Cocklebur ([4]; 62 g ai/ha, scale 0 to 100): 0 | Plant response rating, Cocklebur [4, 13]: 0 | Plant response rating, Cocklebur ([4]; 250 g ai/ha, scale 0-100): 0 | Cocklebur plant response rating ([4]; Preemergence, 500 g ai/ha, scale 0 to 100, 0 no effect, 100 complete control): 20 | Plant response rating, Crabgrass, Large ([5]; 62 g ai/ha, scale 0 to 100): 0 | Plant response rating, Crabgrass, Large [5, 13]: 0 | Plant response rating, Crabgrass, Large ([5]; 250 g ai/ha, scale 0-100): 40 | Plant response rating, Crabgrass, Large [5, 14]: 60 | Plant response rating, Pigweed ([6]; 62 g ai/ha, scale 0 to 100): 30 | Plant response rating, Pigweed [6, 13]: 60 | Plant response rating, Pigweed ([6]; 250 g ai/ha, scale 0-100): 90 | Plant response rating, Pigweed [6, 14]: 90 | Plant response rating, Sunflower ([7]; 62 g ai/ha, scale 0 to 100): 0 | Plant response rating, Sunflower ([7]; 250 g ai/ha, scale 0-100): 20 | Plant response rating, Sunflower [7, 14]: 45 | Plant response rating, Velvetleaf ([8]; 62 g ai/ha, scale 0 to 100): 0 | Plant response rating, Velvetleaf ([8]; 250 g ai/ha, scale 0-100): 80 | Plant response rating, Velvetleaf [8, 14]: 85

CCc1nn(C(C)(C)C)cc1C(=O)Nc1cc(C(=O)N(C)C)ccc1F [Compound 222, N-[5-[(dimethylamino)carbonyl]-2-fluorophenyl]-1-(1,1-dimethylethyl)-3-ethyl-1H-pyrazole-4-carboxamide]
pest or weed control at 500 g/ha ([1]; post-emergence, Postemergence, 500 g ai/ha, 0 to 100 scale, 0 no effect, 100 complete control, read-out: Foxtail, Giant plant response rating): 65% | pest or weed control at 2000 g/ha ([1]; post-emergence, Postemergence, 2000 g ai/ha, 0 to 100 scale, 0 no effect, 100 complete control, read-out: Plant response rating, Foxtail, Giant): 85% | pest or weed control at 2000 g/ha ([1]; pre-emergence, Preemergence, 2000 g ai/ha, visual rating, 0 to 100 scale (0 no effect, 100 complete control), read-out: Foxtail, Giant plant response rating): 100% | pest or weed control at 500 g/ha ([1]; pre-emergence, preemergence, 500 g ai/ha, visual injury, 0 to 100 scale (0 no effect, 100 complete control), read-out: Foxtail, Giant plant response rating): 95% | pest or weed control at 500 g/ha ([2]; post-emergence, Postemergence, 500 g ai/ha, 0 to 100 scale, 0 no effect, 100 complete control, read-out: Velvetleaf plant response rating): 80% | pest or weed control at 2000 g/ha ([2]; post-emergence, Postemergence, 2000 g ai/ha, 0 to 100 scale, 0 no effect, 100 complete control, read-out: Plant response rating, Velvetleaf): 100% | pest or weed control at 2000 g/ha ([2]; pre-emergence, Preemergence, 2000 g ai/ha, visual rating, 0 to 100 scale (0 no effect, 100 complete control), read-out: Velvetleaf plant response rating): 100% | pest or weed control at 500 g/ha ([2]; pre-emergence, preemergence, 500 g ai/ha, visual injury, 0 to 100 scale (0 no effect, 100 complete control), read-out: Velvetleaf plant response rating): 95% | plant injury at 125 g/ha [3, 15]: 90% | plant injury at 500 g/ha [3, 16]: 100% | pest or weed control at 62 g/ha [4, 17]: 0% | pest or weed control at 125 g/ha [4, 18]: 20% | pest or weed control at 250 g/ha [4, 19]: 70% | pest or weed control at 500 g/ha ([4]; Xanthium strumarium, pre-emergence, 312 h, Preemergence, 500 g ai/ha, scale 0 to 100, 0 no effect, 100 complete control, read-out: Cocklebur plant response rating): 100% | pest or weed control at 62 g/ha ([5]; 62 g ai/ha, scale 0 to 100): 100% | pest or weed control at 125 g/ha [5, 13]: 100% | pest or weed control at 250 g/ha ([5]; 250 g ai/ha, scale 0-100): 100% | pest or weed control at 500 g/ha [5, 14]: 100% | pest or weed control at 62 g/ha ([6]; 62 g ai/ha, scale 0 to 100): 100% | pest or weed control at 125 g/ha [6, 13]: 100% | pest or weed control at 250 g/ha ([6]; 250 g ai/ha, scale 0-100): 100% | pest or weed control at 500 g/ha [6, 14]: 100% | pest or weed control at 62 g/ha ([7]; 62 g ai/ha, scale 0 to 100): 0% | pest or weed control at 250 g/ha ([7]; 250 g ai/ha, scale 0-100): 30% | pest or weed control at 500 g/ha [7, 14]: 30% | pest or weed control at 62 g/ha ([8]; 62 g ai/ha, scale 0 to 100): 50% | pest or weed control at 250 g/ha ([8]; 250 g ai/ha, scale 0-100): 100% | pest or weed control at 500 g/ha [8, 14]: 100%

CCNC(=O)c1cccc(NC(=O)c2nn(C(C)(C)C)cc2Br)c1 [Compound 221, 4-bromo-1-(1,1-dimethylethyl)-N-[3-[(ethylamino)carbonyl]phenyl]-1H-pyrazole-3-carboxamide]
plant injury at 125 g/ha [3, 15]: 0% | plant injury at 500 g/ha [3, 16]: 20% | pest or weed control at 62 g/ha [4, 17]: 0% | pest or weed control at 125 g/ha [4, 18]: 0% | pest or weed control at 250 g/ha [4, 19]: 0% | pest or weed control at 62 g/ha ([5]; 62 g ai/ha, scale 0 to 100): 0% | pest or weed control at 125 g/ha [5, 13]: 100% | pest or weed control at 250 g/ha ([5]; 250 g ai/ha, scale 0-100): 100% | pest or weed control at 500 g/ha [5, 14]: 100% | pest or weed control at 62 g/ha ([6]; 62 g ai/ha, scale 0 to 100): 90% | pest or weed control at 125 g/ha [6, 13]: 100% | pest or weed control at 250 g/ha ([6]; 250 g ai/ha, scale 0-100): 100% | pest or weed control at 500 g/ha [6, 14]: 100% | pest or weed control at 62 g/ha ([7]; 62 g ai/ha, scale 0 to 100): 0% | pest or weed control at 250 g/ha ([7]; 250 g ai/ha, scale 0-100): 0% | pest or weed control at 500 g/ha [7, 14]: 30% | pest or weed control at 62 g/ha ([8]; 62 g ai/ha, scale 0 to 100): 0% | pest or weed control at 250 g/ha ([8]; 250 g ai/ha, scale 0-100): 60% | pest or weed control at 500 g/ha [8, 14]: 80%
